Laboratory results published in patent publication US10570179B2, “Substituted urea depsipeptide analogs as activators of the CLPP endopeptidase” (priority 2016, dated 2020).
In brackets after ≈: the same amount, converted by molar mass. Read-outs that look alike come from different tables or passages of the source. Numbered stars: 1 amine (or outer) side, 2 acyl side, 3 side chain; on linkers, the order of the positions; unused ones are H or OH. Bridge positions count the residues as written; N and C are the ends. Square brackets hold non-standard residues; d marks the D form. Peptide text beside a SMILES is read from it. * marks the point of attachment. Piperazine(2S-CO,4-Me) = CN1CCN[C@H](C(=O)O)C1; Phe(3,5-F2) = N[C@@H](Cc1cc(F)cc(F)c1)C(=O)O; NH(1-Me-indolin-5-yl) = CN1CCc2cc(N*)ccc21; X6 = O=C([C@@H]1CS(=O)(=O)CCN1[*:1])[*:2]; Morpholine(3S-CO) = O=C(O)[C@@H]1COCCN1; Phe(3-Me) = Cc1cccc(C[C@H](N)C(=O)O)c1; Pro(4S-Me) = C[C@@H]1CN[C@H](C(=O)O)C1; NH(4-Cl-2-F-phenyl) = Fc1cc(Cl)ccc1N*; Pro(4R-Me) = C[C@H]1CN[C@H](C(=O)O)C1; Propanoyl(3-NMe2) = CN(C)CCC(=O)*; X1 = O=C([C@@H]1CSCCN1[*:1])[*:2]; Hyp = O=C(O)[C@@H]1C[C@@H](O)CN1; NH(4-Me-phenyl) = Cc1ccc(N*)cc1; aThr = C[C@H](O)[C@H](N)C(=O)O; Pip = O=C(O)[C@@H]1CCCCN1; 4Abz = Nc1ccc(C(=O)O)cc1; CO = O=C([*:1])[*:2]

Assay: Solubility determination
Assay type: physicochemical
Settings: for solubility kinetic at 10 min: 22 °C, aqueous buffer, kinetic from dmso stock
Protocol: Test compounds were synthesized and supplied by the Department of Chemical Biology and Therapeutics at St. Jude Children's Research Hospital (Memphis, Tenn.). LC-MS chromasolv grade acetonitrile (ACN) was purchased from Fisher Scientific (Loughborough, UK). LC-MS chromasolv grade formic acid was obtained from Sigma-Aldrich (St. Louis, Mo.). Milli-Q water as an ultrapure laboratory grade water was used in aqueous mobile phase.
Chromatographic separation was performed on an Acquity UPLC BEH C18 1.7 μm, 2.1×50 mm column (Waters Corporation, Milford, Mass.) using an Acquity ultra performance liquid chromatography system. The total flow rate was 0.9 mL/min. The sample injection volume was 10 μL. The UPLC column was maintained at 60° C. and the gradient program started at 90% A (0.1% formic acid in MilliQ H2O), changed to 70% A over 0.2 min, to 95% B (0.1% formic acid in ACN) over 1.4 minutes, held for 0.35 minutes, then to 90% A over 0.05 minutes.
Mass data was acquired with an Acquity SQD Mass Spectrometer. The mass spectrometer was operated in positive-ion mode with electrospray ionization. The conditions were as follows: capillary voltage 3.5 kV, cone voltage 30 V, source temperature 150° C., desolvation temperature 350° C., desolvation gas 500 L/hr, cone gas 25 L/hr. Data were acquired using Masslynx v. 4.1 and analyzed using the Quanlynx software suite. A full scan range from m/z=100-1000 in 0.2 s was used to acquire MS data. Both UV and Single ion recording mass spectrometry were used to determine the quantification of the samples.
Stock solutions were prepared by dissolving compounds into DMSO to yield a concentration of 10 mM. Stock solutions were stored at room temperature.
Calibration standards were made by adding stock solutions to DMSO for final concentrations of compounds at concentration of 100, 25, 6.25, 1.563, 0.391 and 0.098 μM.
Solubility test samples were made by adding stock solutions to 200 μL, of DPBS for final concentrations of compounds at 100 μM in a 96-well analytical plate (300 μL, maximum volume in each well). Samples were tested in triplicates. The plate was sealed, shaken at 600 rpm for 10 minutes, and then was centrifuged at 4000 rpm for 20 min at 22° C. 100 μL, of the supernatant was transferred to a new analytical 96-well plate and 10 μL, was injected onto the LCMS system.
Two calibration curves for solubility test samples were analyzed during the quantitation process. The linear regression of test compound peak areas was weighted by 1/x^2. […] Coefficient of determination (R^2) was used to evaluate the linearity of each calibration curve.

[1] = solubility in DPBS, 100 μM test samples, LCMS, read-out: LCMS

SMILES | solubility kinetic at 10 min [1] | μsol (μM) (solubility) | μsol (μM) | solubility kinetic at 10 min | μsol (μg/mL) (solubility)
Cc1ccc(NC(=O)N[C@@H](Cc2cccc(C)c2)C(=O)N[C@H]2COC(=O)[C@@H]3CCCN3C(=O)[C@H](C)NC(=O)[C@@H]3CCCCN3C(=O)[C@@H]3C[C@@H](O)CN3C2=O)cc1 [Compound 49, (S)—N-((6S,8AS,14AS,16R,20S,23AS)-16-HYDROXY-6-METHYL-5,8,14,19,23-PENTAOXOOCTADECAHYDRO-1H,5H,14H,19H-PYRIDO[2,1-I]DIPYRROLO[2,1-C:2′,1′-L][1]OXA[4,7,10,13]TETRAAZACYCLOHEXADECIN-20-YL)-3-(M-TOLYL)-2-(3-(P-TOLYL)UREIDO)PROPANAMIDE] | 17 ± 6.97 µM (≈ 13.1 µg/mL) | 8.5 ± .51 µM | – | – | –
Cc1ccc(NC(=O)N[C@@H](Cc2cccc(C)c2)C(=O)N[C@H]2COC(=O)[C@@H]3C[C@H](C)CN3C(=O)[C@H](C)NC(=O)[C@@H]3CCCCN3C(=O)[C@@H]3CCCN3C2=O)cc1 (stereo in doubt) [Compound 43, (S)—N-((2S,6S,8AS,14AS,20S,23AS)-2,6-DIMETHYL-5,8,14,19,23-PENTAOXOOCTADECAHYDRO-1H,5H,14H,19H-PYRIDO[2,1-I]DIPYRROLO[2,1-C:2′,1′-L][1]OXA[4,7,10,13]TETRAAZACYCLOHEXADECIN-20-YL)-3-(M-TOLYL)-2-(3-(P-TOLYL)UREIDO)PROPANAMIDE] | 42.2 ± 0.9 µM (≈ 32.6 µg/mL) | 49.8 ± 2.5 µM | – | – | –
Cc1cccc(C[C@H](NC(=O)Nc2ccc(Cl)cc2F)C(=O)N[C@@H]2C(=O)N3CCC[C@H]3C(=O)N3CCS(=O)(=O)C[C@H]3C(=O)N[C@@H](C)C(=O)N3C[C@H](C)C[C@H]3C(=O)O[C@H]2C)c1 [Compound 40, (S)-2-(3-(4-CHLORO-2-FLUOROPHENYL)UREIDO)-3-(M-TOLYL)-N-((6AS,12S,13S,15AS,17R,21S,23AR)-13,17,21-TRIMETHYL-2,2-DIOXIDO-6,11,15,20,23-PENTAOXOOCTADECAHYDRO-6H,11H,15H-DIPYRROLO[2,1-C:2′,1′-L][1,4]THIAZINO[3,4-I][1]OXA[4,7,10,13]TETRAAZACYCLOHEXADECIN-12-YL)PROPANAMIDE] ({NH(4-Cl-2-F-phenyl)-CO}-[Phe(3-Me)][aThr]P[X6]A[Pro(4R-Me)]; ester 2-C) | – | – | 0 µM | 2.21 ± 0.208 µM (≈ 1.93 µg/mL) | –
Cc1ccc(NC(=O)N[C@@H](Cc2cccc(C)c2)C(=O)N[C@@H]2C(=O)N3C[C@H](O)C[C@H]3C(=O)N3CCSC[C@H]3C(=O)N[C@@H](C)C(=O)N3C[C@H](C)C[C@H]3C(=O)O[C@H]2C)cc1 [Compound 42, (S)—N-((6AS,8R,12S,13S,15AS,17R,21S,23AR)-8-HYDROXY-13,17,21-TRIMETHYL-6,11,15,20,23-PENTAOXOOCTADECAHYDRO-6H,11H,15H-DIPYRROLO[2,1-C:2′,1′-L][1,4]THIAZINO[3,4-I][1]OXA[4,7,10,13]TETRAAZACYCLOHEXADECIN-12-YL)-3-(M-TOLYL)-2-(3-(P-TOLYL)UREIDO)PROPANAMIDE] ({NH(4-Me-phenyl)-CO}-[Phe(3-Me)][aThr][Hyp][X1]A[Pro(4R-Me)]; ester 2-C) | 29.2 ± 9.2 µM (≈ 23.9 µg/mL) | 29.7 ± 9.7 µM | – | – | –
CCOC(=O)c1ccc(NC(=O)N[C@@H](Cc2cccc(C)c2)C(=O)N[C@@H]2C(=O)N3C[C@H](O)C[C@H]3C(=O)N3CCCC[C@H]3C(=O)N[C@@H](C)C(=O)N3C[C@H](C)C[C@H]3C(=O)O[C@H]2C)cc1 [Compound 36, ETHYL 4-(3-((S)-1-(((2R,6S,8AS,14AS,16R,20S,21S,23AS)-16-HYDROXY-2,6,21-TRIMETHYL-5,8,14,19,23-PENTAOXOOCTADECAHYDRO-1H,5H,14H,19H-PYRIDO[2,1-I]DIPYRROLO[2,1-C:2′,1′-L][1]OXA[4,7,10,13]TETRAAZACYCLOHEXADECIN-20-YL)AMINO)-1-OXO-3-(M-TOLYL)PROPAN-2-YL)UREIDO)BENZOATE] ({OEt-4Abz-CO}-[Phe(3-Me)][aThr][Hyp][Pip]A[Pro(4R-Me)]; ester 2-C) | 8.17 ± 0.167 µM (≈ 7.02 µg/mL) | 6.4 ± .40 µM | – | – | –
Cc1cccc(C[C@H](NC(=O)Nc2ccc(Cl)cc2F)C(=O)N[C@@H]2C(=O)N3C[C@H](O)C[C@H]3C(=O)N3CCSC[C@H]3C(=O)N[C@@H](C)C(=O)N3C[C@H](C)C[C@H]3C(=O)O[C@H]2C)c1 [Compound 41, (S)-2-(3-(4-CHLORO-2-FLUOROPHENYL)UREIDO)-N-((6AS,8R,12S,13S,15AS,17R,21S,23AR)-8-HYDROXY-13,17,21-TRIMETHYL-6,11,15,20,23-PENTAOXOOCTADECAHYDRO-6H,11H,15H-DIPYRROLO[2,1-C:2′,1′-L][1,4]THIAZINO[3,4-I][1]OXA[4,7,10,13]TETRAAZACYCLOHEXADECIN-12-YL)-3-(M-TOLYL)PROPANAMIDE] ({NH(4-Cl-2-F-phenyl)-CO}-[Phe(3-Me)][aThr][Hyp][X1]A[Pro(4R-Me)]; ester 2-C) | – | – | 2.4 ± .40 µM | 1.4 ± 0.4 µM (≈ 1.2 µg/mL) | –
C[C@@H]1C[C@H]2C(=O)O[C@@H](C)[C@H](NC(=O)[C@H](Cc3cc(F)cc(F)c3)NC(=O)Nc3ccc4c(c3)CCN4C)C(=O)N3CCC[C@H]3C(=O)N3CCOC[C@H]3C(=O)N[C@@H](C)C(=O)N2C1 [Compound 32] ({NH(1-Me-indolin-5-yl)-CO}-[Phe(3,5-F2)][aThr]P[Morpholine(3S-CO)]A[Pro(4R-Me)]; ester 2-C) | 71.5 ± 1.5 µM (≈ 60.8 µg/mL) | 73.4 ± 3.4 µM | – | – | 62.5 ± 2.1 µg/mL
Cc1ccc(NC(=O)N[C@@H](Cc2cccc(C)c2)C(=O)N[C@@H]2C(=O)N3CCC[C@H]3C(=O)N3CCCC[C@H]3C(=O)N[C@@H](C)C(=O)N3C[C@@H](C)C[C@H]3C(=O)O[C@H]2C)cc1 [Compound 45, (S)-3-(M-TOLYL)-2-(3-(P-TOLYL)UREIDO)-N-((2S,6S,8AS,14AS,20S,21S,23AS)-2,6,21-TRIMETHYL-5,8,14,19,23-PENTAOXOOCTADECAHYDRO-1H,5H,14H,19H-PYRIDO[2,1-I]DIPYRROLO[2,1-C:2′,1′-L][1]OXA[4,7,10,13]TETRAAZACYCLOHEXADECIN-20-YL)PROPANAMIDE] ({NH(4-Me-phenyl)-CO}-[Phe(3-Me)][aThr]P[Pip]A[Pro(4S-Me)]; ester 2-C) | 44.5 ± 2.7 µM (≈ 35 µg/mL) | 44.7 ± 4.2 µM | – | – | –
C[C@@H]1C[C@H]2C(=O)OC[C@H](NC(=O)[C@H](Cc3cc(F)cc(F)c3)NC(=O)Nc3ccc(Cl)cc3F)C(=O)N3CCC[C@H]3C(=O)N3CCN(C)C[C@H]3C(=O)N[C@@H](C)C(=O)N2C1 [Compound 34] ({NH(4-Cl-2-F-phenyl)-CO}-[Phe(3,5-F2)]SP[Piperazine(2S-CO,4-Me)]A[Pro(4R-Me)]; ester 2-C) | – | – | 38.7 ± 8.7 µM | 53.6 ± 3.58 µM (≈ 45.4 µg/mL) | –
Cc1cccc(C[C@H](NC(=O)Nc2ccc(Cl)cc2F)C(=O)N[C@@H]2C(=O)N3CCC[C@H]3C(=O)N3CCSC[C@H]3C(=O)N[C@@H](C)C(=O)N3C[C@H](C)C[C@H]3C(=O)O[C@H]2C)c1 [Compound 38, (S)-2-(3-(4-CHLORO-2-FLUOROPHENYL)UREIDO)-3-(M-TOLYL)-N-((6AS,12S,13S,15AS,17R,21S,23AR)-13,17,21-TRIMETHYL-6,11,15,20,23-PENTAOXOOCTADECAHYDRO-6H,11H,15H-DIPYRROLO[2,1-C:2′,1′-L][1,4]THIAZINO[3,4-I][1]OXA[4,7,10,13]TETRAAZACYCLOHEXADECIN-12-YL)PROPANAMIDE] ({NH(4-Cl-2-F-phenyl)-CO}-[Phe(3-Me)][aThr]P[X1]A[Pro(4R-Me)]; ester 2-C) | – | – | 1.7 ± .70 µM | 0.011 ± 0.011 µM (≈ 0.00927 µg/mL) | –
Cc1cccc(C[C@H](NC(=O)Nc2ccc(Cl)cc2F)C(=O)N[C@@H]2C(=O)N3C[C@H](OC(=O)CCN(C)C)C[C@H]3C(=O)N3CCCC[C@H]3C(=O)N[C@@H](C)C(=O)N3C[C@H](C)C[C@H]3C(=O)O[C@H]2C)c1 [Compound 46, (2R,6S,8AS,14AS,16R,20S,21S,23AS)-20-((S)-2-(3-(4-CHLORO-2-FLUOROPHENYL)UREIDO)-3-(M-TOLYL)PROPANAMIDO)-2,6,21-TRIMETHYL-5,8,14,19,23-PENTAOXOOCTADECAHYDRO-1H,5H,14H,19H-PYRIDO[2,1-I]DIPYRROLO[2,1-C:2′,1′-L][1]OXA[4,7,10,13]TETRAAZACYCLOHEXADECIN-16-YL 3-(DIMETHYLAMINO)PROPANOATE] ({NH(4-Cl-2-F-phenyl)-CO}-[Phe(3-Me)][aThr][Hyp](Propanoyl(3-NMe2))[Pip]A[Pro(4R-Me)]; ester 2-C) | – | – | 12.1 ± 1.5 µM | 195 ± 27 µM (≈ 183 µg/mL) | –
